Laboratory results taken from ChEMBL document CHEMBL1133519, “Novel design of nonpeptide AVP V(2) receptor agonists: structural requirements for an agonist having 1-(4-aminobenzoyl)-2,3,4, 5-tetrahydro-1H-1-benzazepine as a template” (J Med Chem, 2000).

Tests used:
Vasopressin V2 receptor [1] = molecular target: T1, Vasopressin V2 receptor (Homo sapiens, UniProt P30518); test: Inhibition of [3H]AVP binding to human Vasopressin V2 receptor expressed in HeLa cells; format: cell-based
Vasopressin V2 receptor [2] = molecular target: T2, Vasopressin V2 receptor (Rattus norvegicus, UniProt Q00788); test: Binding affinity towards rat Vasopressin V2 receptor
T2 sequence (Q00788 whole entry): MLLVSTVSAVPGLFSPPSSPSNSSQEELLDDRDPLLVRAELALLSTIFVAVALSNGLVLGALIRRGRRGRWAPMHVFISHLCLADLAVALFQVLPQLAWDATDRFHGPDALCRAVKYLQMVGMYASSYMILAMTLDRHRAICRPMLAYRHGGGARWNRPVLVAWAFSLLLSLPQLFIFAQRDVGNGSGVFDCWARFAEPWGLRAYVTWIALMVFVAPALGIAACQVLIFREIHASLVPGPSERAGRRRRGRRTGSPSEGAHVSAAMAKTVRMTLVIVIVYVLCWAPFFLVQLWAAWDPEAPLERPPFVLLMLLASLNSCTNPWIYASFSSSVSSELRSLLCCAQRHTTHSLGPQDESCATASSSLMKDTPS

Vasopressin V2 receptor [3] = molecular target: T1, Vasopressin V2 receptor; test: Concentration which inhibit [3H]AVP binding to human Vasopressin V2 receptor coded HeLa cells by 50%; format: cell-based
Vasopressin V2 receptor [4] = molecular target: T2, Vasopressin V2 receptor; test: Binding affinity towards rat Vasopressin V2 receptor in vitro
Vasopressin V1a receptor [5] = molecular target: Vasopressin V1a receptor (Rattus norvegicus, UniProt P30560); test: Binding affinity towards rat Vasopressin V1a receptor […]
Sequence of Vasopressin V1a receptor (Rattus norvegicus, UniProt P30560) (P30560 whole entry): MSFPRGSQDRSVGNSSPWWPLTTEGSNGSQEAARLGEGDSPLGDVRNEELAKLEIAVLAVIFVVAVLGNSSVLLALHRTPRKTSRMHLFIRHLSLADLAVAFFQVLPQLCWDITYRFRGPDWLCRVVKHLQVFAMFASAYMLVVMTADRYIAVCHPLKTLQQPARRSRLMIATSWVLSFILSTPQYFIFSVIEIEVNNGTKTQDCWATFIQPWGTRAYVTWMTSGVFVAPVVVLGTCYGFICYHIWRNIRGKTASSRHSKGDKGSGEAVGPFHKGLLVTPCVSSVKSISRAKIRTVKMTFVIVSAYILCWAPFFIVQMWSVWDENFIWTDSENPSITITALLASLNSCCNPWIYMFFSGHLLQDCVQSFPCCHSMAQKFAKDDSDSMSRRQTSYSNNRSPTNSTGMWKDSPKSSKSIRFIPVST

Vasopressin V1a receptor [6] = molecular target: Vasopressin V1a receptor (Homo sapiens, UniProt P37288); test: Binding affinity towards Vasopressin V1a receptor in human liver
Sequence of Vasopressin V1a receptor (Homo sapiens, UniProt P37288) (P37288 whole entry): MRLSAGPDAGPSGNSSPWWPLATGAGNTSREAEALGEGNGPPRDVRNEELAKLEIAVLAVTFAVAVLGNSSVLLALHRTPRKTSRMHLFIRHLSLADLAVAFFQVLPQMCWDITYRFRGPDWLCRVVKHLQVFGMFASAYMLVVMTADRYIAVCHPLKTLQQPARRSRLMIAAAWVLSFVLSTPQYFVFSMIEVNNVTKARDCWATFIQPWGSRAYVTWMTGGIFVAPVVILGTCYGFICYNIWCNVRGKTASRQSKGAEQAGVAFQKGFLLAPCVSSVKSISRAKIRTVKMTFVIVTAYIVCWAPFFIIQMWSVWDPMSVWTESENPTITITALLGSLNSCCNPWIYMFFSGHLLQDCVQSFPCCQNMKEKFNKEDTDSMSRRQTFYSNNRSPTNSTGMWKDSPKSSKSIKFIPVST

[7] = Binding affinity towards AVP receptor

T1 sequence (P30518 whole entry): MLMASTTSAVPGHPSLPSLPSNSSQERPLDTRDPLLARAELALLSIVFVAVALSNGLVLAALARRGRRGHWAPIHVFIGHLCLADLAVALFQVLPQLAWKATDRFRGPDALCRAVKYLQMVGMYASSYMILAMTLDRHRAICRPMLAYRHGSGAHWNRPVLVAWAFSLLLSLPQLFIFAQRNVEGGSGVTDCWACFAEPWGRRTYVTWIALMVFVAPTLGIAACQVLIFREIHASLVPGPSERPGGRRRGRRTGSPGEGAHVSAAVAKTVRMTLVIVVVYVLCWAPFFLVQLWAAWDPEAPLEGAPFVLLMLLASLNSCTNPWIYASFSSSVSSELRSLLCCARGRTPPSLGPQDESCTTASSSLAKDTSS

SMILES: O=C(c1ccc(-n2cccc2)cc1)N1CCCCc2ccccc21
- IC50 (Vasopressin V2 receptor [1]): 0.32 µM

SMILES: Cc1cc(N)ccc1C(=O)N1CCCCc2cc(Cl)ccc21
- IC50 (Vasopressin V2 receptor [1]): 0.0041 µM

SMILES: CC1CCN(c2ccc(C(=O)N3CCCCc4ccccc43)c(Cl)c2)C1 (stereo not drawn)
- IC50 (Vasopressin V2 receptor [1]): 0.051 µM

SMILES: CCCCNc1ccc(C(=O)N2CCCCc3ccccc32)c(Cl)c1
- IC50 (Vasopressin V2 receptor [1]): 0.022 µM

SMILES: C=CCNc1ccc(C(=O)N2CCCCc3ccccc32)c(Cl)c1
- IC50 (Vasopressin V2 receptor [1]): 0.0059 µM

SMILES: CN(C)c1ccc(C(=O)N2CCCCc3ccccc32)c(Cl)c1
- IC50 (Vasopressin V2 receptor [1]): 0.018 µM

SMILES: O=C(c1ccc(N2CCCCC2)cc1Cl)N1CCCCc2ccccc21
- IC50 (Vasopressin V2 receptor [1]): 0.12 µM

SMILES: O=C(c1ccc(N2CCCC2)cc1Cl)N1CCCCc2cc(Cl)ccc21
- IC50 (Vasopressin V2 receptor [1]): 0.016 µM

SMILES: CCCCCNc1ccc(C(=O)N2CCCCc3ccccc32)c(Cl)c1
- IC50 (Vasopressin V2 receptor [1]): 0.031 µM

SMILES: O=C(c1ccc(N2CCCC2)cc1Cl)N1CCCCc2ccccc21
- IC50 (Vasopressin V2 receptor [1]): 0.009 µM
- IC50 (Vasopressin V2 receptor [2]): 0.15 µM

SMILES: CCCNc1ccc(C(=O)N2CCCCc3ccccc32)c(Cl)c1
- IC50 (Vasopressin V2 receptor [1]): 0.018 µM

SMILES: CCN(CC)c1ccc(C(=O)N2CCCCc3ccccc32)c(Cl)c1
- IC50 (Vasopressin V2 receptor [1]): 0.019 µM

SMILES: O=C(c1ccc(N2CCCC2)cc1)N1CCCCc2ccccc21
- IC50 (Vasopressin V2 receptor [1]): 1 µM

SMILES: CCNc1ccc(C(=O)N2CCCCc3ccccc32)c(Cl)c1
- IC50 (Vasopressin V2 receptor [1]): 0.034 µM

SMILES: Cc1ccccc1OCC(=O)Nc1ccc(C(=O)N2CCCCc3cc(Cl)ccc32)c(C)c1
- IC50 (Vasopressin V2 receptor [3]): 0.00095 µM
- IC50 (Vasopressin V2 receptor [4]): 0.038 µM
- IC50 (Vasopressin V1a receptor [5]): 5.1 µM

SMILES: CN(C)c1ccc(C(=O)N2CCCCc3cc(Cl)ccc32)c(Cl)c1
- IC50 (Vasopressin V2 receptor [1]): 0.013 µM

SMILES: O=C(c1ccc(-n2cccn2)cc1Cl)N1CCCCc2ccccc21
- IC50 (Vasopressin V2 receptor [1]): 0.0088 µM

SMILES: Nc1ccc(C(=O)N2CCCCc3ccccc32)cc1
- IC50 (Vasopressin V2 receptor [1]): 0.18 µM

SMILES: CCNc1ccc(C(=O)N2CCCCc3cc(Cl)ccc32)c(Cl)c1
- IC50 (Vasopressin V2 receptor [1]): 0.005 µM

SMILES: O=C(c1ccc(-n2cccc2)cc1Cl)N1CCCCc2ccccc21
- IC50 (Vasopressin V2 receptor [1]): 0.0075 µM

SMILES: Cc1ccn(-c2ccc(C(=O)N3CCCCc4ccccc43)c(Cl)c2)n1
- IC50 (Vasopressin V2 receptor [1]): 0.013 µM

SMILES: CC(=O)NCCCOc1ccc(C(=O)N2CCC(N3C(=O)CCc4ccccc43)CC2)cc1
- Ki (Vasopressin V1a receptor [6]): 14 µM

SMILES: O=C(c1ccc(N2CCCC2)cc1)N1CCCCc2cc(Cl)ccc21
- IC50 (Vasopressin V2 receptor [1]): 0.21 µM

SMILES: Cc1ccccc1C(=O)Nc1ccc(C(=O)N2CCCC(O)c3cc(Cl)ccc32)c(C)c1 (stereo not drawn) [TOLVAPTAN]
- Ki [7]: 0.00079 µM

SMILES: CNc1ccc(C(=O)N2CCCCc3ccccc32)c(Cl)c1
- IC50 (Vasopressin V2 receptor [1]): 0.035 µM
